# What was measured:
# [1] = target: T1, Prostaglandin E2 receptor EP4 subtype (Homo sapiens, UniProt P35408); test: Binding affinity at human prostaglandin EP4 receptor
# [2] = target: T2, Prostaglandin E2 receptor EP2 subtype (Homo sapiens, UniProt P43116); test: Binding affinity at human prostaglandin EP2 receptor
# [3] = target: T1, Prostaglandin E2 receptor EP4 subtype; test: Agonist activity at human prostaglandin EP4 receptor; assay type: functional
# [4] = target: T2, Prostaglandin E2 receptor EP2 subtype; test: Agonist activity at human prostaglandin EP2 receptor; assay type: functional
# Homo sapiens = species: Homo sapiens; test: Selectivity for human EP4 over human EP2 receptor
# [5] = Fraction unbound ligand in rat; assay type: ADME
# [6] = Half life in rat; assay type: ADME, organism-based; conditions: in vivo
# Mus musculus = test: Induction of ovulation in sc dosed CD1 mouse; assay type: functional, organism-based
# [7] = Metabolic stability in human liver microsomes after 1 hr; assay type: ADME, Microsome; conditions: read-out: Stability
# [8] = Solubility in HBSS; assay type: physicochemical
# [9] = Apparent permeability of the compound; assay type: ADME; conditions: not told
# [10] = Metabolic stability in rat liver microsomes after 1 hr; assay type: ADME, Microsome; conditions: read-out: Stability
# [11] = Solubility in saline; assay type: physicochemical
# [12] = Oral bioavailability in rat; assay type: ADME, organism-based; conditions: in vivo
# T2 sequence (P43116 whole entry): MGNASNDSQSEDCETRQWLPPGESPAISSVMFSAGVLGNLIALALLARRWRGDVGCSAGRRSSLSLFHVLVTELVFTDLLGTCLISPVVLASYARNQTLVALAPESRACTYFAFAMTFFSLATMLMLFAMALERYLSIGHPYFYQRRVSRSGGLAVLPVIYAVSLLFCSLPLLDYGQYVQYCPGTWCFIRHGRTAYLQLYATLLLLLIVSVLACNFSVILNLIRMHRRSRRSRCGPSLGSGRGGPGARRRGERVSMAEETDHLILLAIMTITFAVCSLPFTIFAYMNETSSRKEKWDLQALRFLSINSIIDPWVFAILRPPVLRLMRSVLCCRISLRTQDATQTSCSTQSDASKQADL
# T1 sequence (P35408 whole entry): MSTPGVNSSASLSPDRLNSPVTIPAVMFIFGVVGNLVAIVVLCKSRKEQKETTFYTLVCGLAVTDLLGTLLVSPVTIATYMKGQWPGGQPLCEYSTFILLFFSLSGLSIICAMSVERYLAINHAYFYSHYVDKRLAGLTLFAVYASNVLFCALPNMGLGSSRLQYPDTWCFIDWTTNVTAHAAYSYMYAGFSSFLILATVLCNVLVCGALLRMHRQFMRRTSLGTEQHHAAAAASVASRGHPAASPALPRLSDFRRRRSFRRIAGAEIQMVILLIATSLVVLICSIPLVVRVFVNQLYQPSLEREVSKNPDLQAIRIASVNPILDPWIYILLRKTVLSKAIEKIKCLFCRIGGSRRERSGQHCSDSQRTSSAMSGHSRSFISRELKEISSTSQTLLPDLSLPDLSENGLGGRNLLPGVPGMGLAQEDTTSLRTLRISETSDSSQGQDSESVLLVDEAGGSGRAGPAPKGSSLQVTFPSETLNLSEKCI
SMILES,Ki [1],Ki [2],further results
O=C(O)c1ccc(CCN2C(=O)CCN2CCC(O)Cc2cccc(CCC3CC3)c2)cc1 (stereo unspecified),330 nM,8340 nM,
CCCC1([C@H](O)C/C=C/[C@H]2[C@H](O)CC(=O)[C@@H]2CCCCCCC(=O)OC)CCC1 [BUTAPROST],> 10000 nM,110 nM,
O=C(O)c1ccc(CCN2C(=O)CCN2CCC(O)Cc2cccc(Cl)c2)cc1 (stereo unspecified),,,EC50 [3]: 0.2 nM
O=C(O)c1ccc(CCN2C(=O)CCN2CC[C@@H](O)Cc2ccccc2)cc1,134 nM,9200 nM,
CCCC1(C(O)CCCN2CCC(=O)N2CCc2ccc(C(=O)O)cc2)CCC1 (stereo unspecified),> 50000 nM,750 nM,EC50 [4]: 393 nM
O=C(O)c1ccc(CCN2C(=O)CCN2CCC(O)Cc2ccccc2)cc1 (stereo unspecified),,,Selectivity ratio (Homo sapiens): 100
CCCCCC(O)CCN1CCC(=O)N1CCc1ccc(C(=O)O)cc1 (stereo unspecified),,,Selectivity ratio (Homo sapiens): 10
CC(CCN1CCC(=O)N1CCc1ccc(C(=O)O)cc1)Cc1cccc(CCc2ccccc2)c1 (stereo unspecified),44 nM,560 nM,
O=C(O)c1ccc(CCN2C(=O)CCN2CC[C@@H](O)Cc2cccc(Br)c2)cc1,13 nM,3070 nM,EC50 [3]: 0.1 nM; EC50 [4]: > 10000 nM
O=C(O)c1ccc(CCN2C(=O)CCN2CCC(O)Cc2cccc(Br)c2)cc1 (stereo unspecified),13 nM,5450 nM,fraction unbound [5]: 0.61; half-life [6]: 4.25 h; EC50 [3]: 0.2 nM; Activity (Mus musculus): Dose-dependent effect; remaining at 1 h [7]: 0%; solubility [8]: 890 µg/mL; Papp [9]: 10 ×10⁻⁶ cm/s; remaining at 1 h [10]: 7%; solubility [11]: 840 µg/mL; bioavailability [12]: 6.7%
O=C(O)c1ccc(CCN2C(=O)CCN2CC[C@@H](O)Cc2cccc(I)c2)cc1,26 nM,2030 nM,
O=C(O)c1ccc(CCN2C(=O)CCN2CCC(O)Cc2cccc(C(F)(F)F)c2)cc1 (stereo unspecified),57 nM,6000 nM,
O=C(O)c1ccc(CCN2C(=O)CCN2CCC(O)Cc2cccc(I)c2)cc1 (stereo unspecified),27 nM,2360 nM,

# Source: ChEMBL document CHEMBL1140555, “Synthesis and evaluation of novel pyrazolidinone analogs of PGE2 as EP2 and EP4 receptors agonists” (Bioorg Med Chem Lett, 2007)
